Reference: patent US8815857B2 (Boehringer Ingelheim International GmbH, priority 2011, dated 2014)
≈ marks a conversion by molar mass, not a printed value.

What was measured:
[1] = Assessment of solubility: HT solubility in pION buffer, UV spectrophotometry; details: kinetic from dmso stock
[2] = target: T1, human soluble guanylate cyclase alpha 1 and beta 1 subunits (sGC) stably expressed in Chinese hamster ovary cells (Homo sapiens, UniProt Q02108+Q02153); assay: sGC cellular activator assay: cGMP in CHO cells expressing human sGC, preincubated with ODQ; type: cell-based; details: 40 microM ODQ preincubation, 30 min at room temperature, presence or absence of 50% human serum not given, read-out: EC50 nM, Activity of Compounds in Cellular Assay
T1 construct: expressed in transfected cells; host or cells: Chinese hamster ovary cells, stably transfected
T1 sequence (Q02108 1-690 partner): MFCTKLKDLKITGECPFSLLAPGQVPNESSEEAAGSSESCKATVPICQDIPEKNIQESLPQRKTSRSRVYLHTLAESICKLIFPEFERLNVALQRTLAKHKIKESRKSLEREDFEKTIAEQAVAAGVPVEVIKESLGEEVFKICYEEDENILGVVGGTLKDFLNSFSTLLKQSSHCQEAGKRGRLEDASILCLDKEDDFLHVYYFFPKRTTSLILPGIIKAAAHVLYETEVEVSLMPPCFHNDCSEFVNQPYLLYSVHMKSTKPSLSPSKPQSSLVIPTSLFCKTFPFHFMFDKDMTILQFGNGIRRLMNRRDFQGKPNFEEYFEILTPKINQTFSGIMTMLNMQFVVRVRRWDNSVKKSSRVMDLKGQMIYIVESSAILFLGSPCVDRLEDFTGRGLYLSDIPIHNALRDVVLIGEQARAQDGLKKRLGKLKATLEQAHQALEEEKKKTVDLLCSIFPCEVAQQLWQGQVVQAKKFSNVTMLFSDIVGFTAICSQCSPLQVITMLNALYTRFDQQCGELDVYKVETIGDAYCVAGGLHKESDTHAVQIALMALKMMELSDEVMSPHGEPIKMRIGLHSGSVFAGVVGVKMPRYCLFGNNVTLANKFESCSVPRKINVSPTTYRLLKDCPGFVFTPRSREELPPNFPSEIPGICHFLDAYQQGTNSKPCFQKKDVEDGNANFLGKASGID
T1 sequence (Q02153 1-619): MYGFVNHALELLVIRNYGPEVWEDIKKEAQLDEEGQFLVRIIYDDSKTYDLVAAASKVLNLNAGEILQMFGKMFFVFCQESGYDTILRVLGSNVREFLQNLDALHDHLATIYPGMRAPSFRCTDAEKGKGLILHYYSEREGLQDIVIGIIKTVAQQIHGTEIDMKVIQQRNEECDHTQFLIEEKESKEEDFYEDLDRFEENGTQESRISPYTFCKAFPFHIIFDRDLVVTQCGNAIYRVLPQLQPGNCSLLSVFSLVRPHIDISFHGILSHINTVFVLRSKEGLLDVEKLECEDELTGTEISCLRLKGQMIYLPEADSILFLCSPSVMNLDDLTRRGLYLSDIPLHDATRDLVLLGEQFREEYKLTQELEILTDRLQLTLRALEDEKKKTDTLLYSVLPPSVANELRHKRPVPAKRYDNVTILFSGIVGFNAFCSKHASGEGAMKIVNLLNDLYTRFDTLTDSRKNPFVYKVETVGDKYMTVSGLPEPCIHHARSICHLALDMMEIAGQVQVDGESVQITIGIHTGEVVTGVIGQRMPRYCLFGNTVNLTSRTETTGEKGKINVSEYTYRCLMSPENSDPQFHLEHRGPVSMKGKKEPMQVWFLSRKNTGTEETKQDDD
Method in brief: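 EC50 values derive from HTRF cGMP measurement after test compounds act for thirty minutes at room temperature, with or without 50% human serum. Before dosing, the sGC-transfected CHO cells spend one hour with the inhibitor ODQ (40 microM) in IBMX- and 0.1% BSA-containing buffer.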

[3] = pH 6.8, aqueous buffer, Solubility (pH 6.8), pH 6.8
[4] = pION system solution buffer, pH 4.5, pH 4.5, aqueous buffer, Solubility (pH 4.5), pH 4.5 buffer, 16-19 h incubation, 1.0% DMSO

Compound	solubility [1, 3] [µg/mL]	solubility [1, 4] [µg/mL]	EC50 [2] [nM]
Cc1ccc(OCc2ccc(C(=O)N(C)CCCO)cc2C)c(-c2csc(N3C[C@H]4CC[C@@H](C3)[C@H]4C(=O)O)n2)c1 [Compound 324]	73 (≈ 129 µM)	0.92 (≈ 1.63 µM)	66
Cc1ccc(OCc2ccc(C(=O)N3CC[C@H](CO)C3)cc2C)c(-c2csc(N3C[C@H]4CC[C@@H](C3)[C@H]4C(=O)O)n2)c1 [Compound 325]	59 (≈ 102 µM)	0.17 (≈ 0.295 µM)	29
Cc1ccc(OCc2ccc(C(=O)N3CC[C@@H](CO)C3)cc2C)c(-c2csc(N3C[C@H]4CC[C@@H](C3)[C@H]4C(=O)O)n2)c1 [Compound 326]	65 (≈ 113 µM)	0.21 (≈ 0.365 µM)	61
Cc1ccc(OCc2ccc(C(=O)N3CCn4ncnc4C3)cc2C)c(-c2csc(N3C[C@H]4CC[C@@H](C3)[C@H]4C(=O)O)n2)c1 [Compound 327]	71 (≈ 119 µM)	< 0.1	14
CO[C@H]1CCN(C(=O)c2ccc(COc3ccc(C)cc3-c3csc(N4C[C@H]5CC[C@@H](C4)[C@H]5C(=O)O)n3)c(C)c2)C1 [Compound 328]	62 (≈ 108 µM)	< 0.1	29
CO[C@@H]1CCN(C(=O)c2ccc(COc3ccc(C)cc3-c3csc(N4C[C@H]5CC[C@@H](C4)[C@H]5C(=O)O)n3)c(C)c2)C1 [Compound 329]	56 (≈ 97.3 µM)	< 0.1	23
Cc1ccc(OCc2ccc(C(=O)N(C)CC#N)cc2C)c(-c2csc(N3C[C@H]4CC[C@@H](C3)[C@H]4C(=O)O)n2)c1 [Compound 330]	40 (≈ 73.4 µM)	< 0.1	52
Cc1ccc(OCc2ccc(C(=O)N(C)Cc3cncn3C)cc2C)c(-c2csc(N3C[C@H]4CC[C@@H](C3)[C@H]4C(=O)O)n2)c1 [Compound 331]	47 (≈ 78.4 µM)	42 (≈ 70 µM)	140
CCOC1CCN(C(=O)c2ccc(COc3ccc(C)cc3-c3csc(N4C[C@H]5CC[C@@H](C4)[C@H]5C(=O)O)n3)c(C)c2)C1 (stereo partly drawn) [Compound 332]	35 (≈ 59.3 µM)	0.14 (≈ 0.237 µM)	30
Cc1ccc(OCc2ccc(C(=O)N3CCn4cnnc4C3)cc2C)c(-c2csc(N3C[C@H]4CC[C@@H](C3)[C@H]4C(=O)O)n2)c1 [Compound 333]	59 (≈ 98.5 µM)	1.1 (≈ 1.84 µM)	110
Cc1ccc(OCc2ccc(C(=O)N(C)Cc3ncc[nH]3)cc2C)c(-c2csc(N3C[C@H]4CC[C@@H](C3)[C@H]4C(=O)O)n2)c1 [Compound 334]	24 (≈ 41 µM)	11 (≈ 18.8 µM)	160
CCOCCN(C)C(=O)c1ccc(COc2ccc(C)cc2-c2csc(N3C[C@H]4CC[C@@H](C3)[C@H]4C(=O)O)n2)c(C)c1 [Compound 335]	49 (≈ 84.8 µM)	0.4 (≈ 0.692 µM)	70
Cc1ccc(OCc2ccc(C(=O)N3CCCC(C)(O)C3)cc2C)c(-c2csc(N3C[C@H]4CC[C@@H](C3)[C@H]4C(=O)O)n2)c1 (stereo partly drawn) [Compound 336]	6.1 (≈ 10.3 µM)	0.16 (≈ 0.271 µM)	79
Cc1ccc(OCc2ccc(C(=O)N3CCCC(C#N)C3)cc2C)c(-c2csc(N3C[C@H]4CC[C@@H](C3)[C@H]4C(=O)O)n2)c1 (stereo partly drawn) [Compound 337]	1.5 (≈ 2.57 µM)	< 0.1	14
COCCCN(C)C(=O)c1ccc(COc2ccc(C)cc2-c2csc(N3C[C@H]4CC[C@@H](C3)[C@H]4C(=O)O)n2)c(C)c1 [Compound 338]	58 (≈ 100 µM)	0.13 (≈ 0.225 µM)	43
